Results as given in publication PMC6155683, “Pharmacokinetics Studies of 12 Alkaloids in Rat Plasma after Oral Administration of Zuojin and Fan-Zuojin Formulas” (Molecules : A Journal of Synthetic Chemistry and Natural …, 2017).
Where two headings read alike, the source gives them in different places.

How the values were obtained:
[1] = Dose modified systemic exposure (AUC0→∞/D, Cmax/D)
Procedure: Because the alkaloids content in ZJ and FZJ were no longer linear with the proportion of CR and EF after extraction process, AUC0→∞/D (ratio of AUC0→∞ and dose) and Cmax/D (ratio of Cmax and dose) were calculated to estimate the dose modified systemic exposure levels of the 12 alkaloids (Table 3). […] Physicochemical properties of these alkaloids had been calculated in silico to predict their human colon adenocarcinoma cell (Caco-2) permeability according to the three-property based rule (3PRule). Polar surface area (PSA), logarithm of the n-octanol/water distribution coefficient (LogD), molecular weight (MW), hydrogen bond donors (HBD), hydrogen bond acceptors (HBA), number of free rotatable bonds (NRB) and molar solubility (S) of the alkaloids were retrieved from SciFinder® (American Chemical Society).

[2] = Stability of analytes in rat plasma under storage conditions; format: physicochemical; settings: n = 6; for Stability RE, 3 freeze-thaw cycles / Stability RE, 30 days at −20 °C: rat plasma; for Stability RE, processed samples' stability: room temperature 24 h
Procedure: The stabilities of analytes in plasma were assessed by analyzing the QC samples at three concentration levels under the following storage conditions: after three freeze (−20 °C)-thaw (room temperature) cycles; stored at −20 °C for 30 days, and comparing the results with those of freshly prepared QC samples. Stabilities of the processed samples at room temperature for 24 h were also assessed.

[3] = PK study of the 12 alkaloids in rat plasma after oral administration of ZJ and FZJ extract (LC–MS/MS); format: in vivo; settings: for AUC(0-t) / AUC(0-inf) / Cmax / MRT last / MRT inf / half-life / Tmax / Tsec (time of the secondary peak in C–T curve) / Csec (drug concentration of the secondary peak in C–T curve): rat plasma; for AUC(0-t) / AUC(0-inf) / Cmax / MRT last / MRT inf / half-life / Csec (drug concentration of the secondary peak in C–T curve): mean ± SD, n = 6; for AUC(0-t): read-out: AUC0→t; for AUC(0-inf): read-out: AUC0→∞; for Cmax: read-out: Cmax; for MRT last: read-out: MRT0→t (converted); for MRT inf: read-out: MRT0→∞ (converted); for half-life: read-out: t1/2; for Tmax: read-out: Tmax (converted)
Procedure: The time schedule included 15 time-points and six rats were sampled at each time-point. All the rats were orally administered with ZJ extract (suspended in water) at a dose of 3.38 g/kg body weight (dosages of the 12 alkaloids were shown in Table S4), equivalent to crude drug dose of 12 g/kg body weight. Blood samples were collected from the suborbital vein of the rats at 10, 20, 30, 60, 90, 120, 180, 240, 300, 330, 360, 480, 720, 1440, 2160 min after administration, and centrifuged immediately at 5000 rpm for 10 min. The plasma samples were stored at −20 °C until analysis.
Similarly, the time schedule of other rats included 15 time-points and six rats were orally administered with FZJ extract at a dose of 3.76 g/kg body weight (also equivalent to crude drug dose of 12 g/kg body weight, Table S4). Blood samples were collected and treated as mentioned above in the PK study of ZJ extract.
PK parameters of the 12 alkaloids including AUC0→t, AUC0→∞, mean retention time (MRT0→t, MRT0→∞), and elimination half-life (t1/2) were calculated with non-compartmental method by DAS 2.0 software (Mathematical Pharmacology Professional Committee of China, Shanghai, China). Maximum plasma drug concentration (Cmax) and time to reach the maximum plasma drug concentration (Tmax) were observed directly from the detected C–T data. The results were expressed as arithmetic mean ± standard deviation (SD).

[4] = Two-compartment model fitting of C–T curves (DAS 2.0); format: in vivo, rat
Excerpt: Double peaks in C–T curves were observed repeatedly in the PK study of ZJ and related TCM prescriptions, but explanations to the phenomenon were still ambiguous. Generally, possible reasons for the double peak phenomenon could be summarized as follows: (a) enterohepatic circulation; […] (c) irregular pattern of gastric emptying. […] Moreover, Tmax of the alkaloids after administration of ZJ extract were deferred from that of FZJ administration. […] It probably play a major role in the double peak phenomenon, since the GI motility can affect the drug absorption.

Compound	AUC0→∞/D (ratio of AUC0→∞ and dose) ([1]; oral ZJ extract)	Cmax/D (ratio of Cmax and dose) ([1]; oral ZJ extract)	Stability RE, 3 freeze-thaw cycles ([2]; high QC concentration)	Stability RE, 30 days at −20 °C ([2]; high QC concentration)	Stability RE, 3 freeze-thaw cycles ([2]; low QC concentration)	Stability RE, 30 days at −20 °C ([2]; low QC concentration)	Stability RE, 3 freeze-thaw cycles ([2]; medium QC concentration)	Stability RE, 30 days at −20 °C ([2]; medium QC concentration)	Stability RE, processed samples' stability ([2]; high QC concentration)	Stability RE, processed samples' stability ([2]; low QC concentration)	Stability RE, processed samples' stability ([2]; medium QC concentration)	AUC(0-t) ([3]; 3.38 g/kg, oral ZJ extract)	AUC(0-inf) ([3]; 3.38 g/kg, oral ZJ extract)	Cmax ([3]; 3.38 g/kg, oral ZJ extract)	MRT last ([3]; 3.38 g/kg, oral ZJ extract)	MRT inf ([3]; 3.38 g/kg, oral ZJ extract)	half-life ([3]; 3.38 g/kg, oral ZJ extract)	Tmax ([3]; 3.38 g/kg, oral ZJ extract)	Tsec (time of the secondary peak in C–T curve) ([3]; oral ZJ extract)	Csec (drug concentration of the secondary peak in C–T curve) ([3]; oral ZJ extract)	further results
O=c1c2c3c(ccc2cc2n1CCc1cc4c(cc1-2)OCO4)OCO3 [8-oxocoptisine]	44.44	3.98	−12.48%	−14.51%	6.73%	6.72%	7.48%	9.66%	10.05%	−3.71%	10.68%	24.7 ± 3.9 ng·h/mL	27 ± 2.23 ng·h/mL	2.46 ± 1.17 ng/mL	10.1 h	13.5 h	8.93 ± 2.65 h	5 h	90 min	2.42 ± 0.89 ng/mL	plasma concentrations at most time points ([3]; oral FZJ extract): below the LLOQ
COc1cc2c(cc1OC)C(=O)NCC2 [corydaldine]	1688.21	369.29	−2.29%	−2.68%	−1.98%	15.65%	3.89%	−11.86%	−10.59%	13.85%	−6.31%	45.1 ± 7.46 ng·h/mL	47.3 ± 7.36 ng·h/mL	10.3 ± 5.45 ng/mL	6.72 h	8.55 h	9.92 ± 2.06 h	1.5 h	300 min	9.03 ± 4.31 ng/mL	AUC0→∞/D (ratio of AUC0→∞ and dose) ([1]; oral FZJ extract): 310.00; Cmax/D (ratio of Cmax and dose) ([1]; oral FZJ extract): 173.00; AIC (Akaike's information criterion method), two-compartment model fitting ([4]; oral FZJ extract): 3.947 ± 8.187; r^2 (correlation coefficient method), two-compartment model fitting ([4]; oral FZJ extract): 0.805 ± 0.066; AIC (Akaike's information criterion method), two-compartment model fitting ([4]; oral ZJ extract): 85.431 ± 9.718; r^2 (correlation coefficient method), two-compartment model fitting ([4]; oral ZJ extract): 0.243 ± 0.267; AUC(0-t) ([3]; 3.76 g/kg, oral FZJ extract): 2.86 ± 0.35 ng·h/mL; AUC(0-inf) ([3]; 3.76 g/kg, oral FZJ extract): 3.1 ± 0.46 ng·h/mL; Cmax ([3]; 3.76 g/kg, oral FZJ extract): 1.73 ± 0.58 ng/mL; MRT last ([3]; 3.76 g/kg, oral FZJ extract): 2.85 h; MRT inf ([3]; 3.76 g/kg, oral FZJ extract): 3.99 h; half-life ([3]; 3.76 g/kg, oral FZJ extract): 3.89 ± 1.29 h; Tmax ([3]; 3.76 g/kg, oral FZJ extract): 0.5 h
COc1cc2c(cc1OC)-c1cc3ccc4c(c3c[n+]1CC2)OCO4 [epiberberine]	0.62	0.12	−12.84%	−6.2%	−3.64%	13.92%	−6.12%	−13.86%	−10.77%	2.78%	−8.85%	68.5 ± 15.9 ng·h/mL	69.6 ± 15.5 ng·h/mL	13.7 ± 7.05 ng/mL	10.8 h	11.6 h	6.11 ± 1.7 h	5 h	90 min	5.51 ± 2.17 ng/mL	AUC0→∞/D (ratio of AUC0→∞ and dose) ([1]; oral FZJ extract): 1.91; Cmax/D (ratio of Cmax and dose) ([1]; oral FZJ extract): 0.81; AUC(0-t) ([3]; 3.76 g/kg, oral FZJ extract): 10.1 ± 1.09 ng·h/mL; AUC(0-inf) ([3]; 3.76 g/kg, oral FZJ extract): 11.4 ± 1.27 ng·h/mL; Cmax ([3]; 3.76 g/kg, oral FZJ extract): 4.82 ± 1.97 ng/mL; MRT last ([3]; 3.76 g/kg, oral FZJ extract): 3.89 h; MRT inf ([3]; 3.76 g/kg, oral FZJ extract): 5.26 h; half-life ([3]; 3.76 g/kg, oral FZJ extract): 3.92 ± 1.69 h; Tmax ([3]; 3.76 g/kg, oral FZJ extract): 3 h
